Data from patent publication US20160257697A1, “THIOPHENE-SUBSTITUTED TETRACYCLIC COMPOUNDS AND METHODS OFUSE THEREOF FOR THE TREATMENT OF VIRAL DISEASES” (priority 2013, published 2016).
Where two headings read alike, the source gives them in different places.

How the values were obtained:
Test in all cases: microbe, parasite or virus in culture
Format in all cases: cell-based, Hepatitis C virus (HCV)
HCV replicon 1B = settings: Replicon Assay B
HCV replicon 1AQ30D = settings: Replicon Assay B
HCV replicon 2B = settings: Replicon Assay A
Procedure, shortened: (§1)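 Replicon cells were seeded at 2000 cells/well with test compound in 0.5% DMSO and 5% FBS, then harvested on day 3. Replicon RNA was measured by multiplex TaqMan real-time RT-PCR, using cyclophilin RNA as the endogenous control and quantified against standard curves of HCV replicon total RNA.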

HCV replicon 1AY93H = settings: Replicon Assay A
Procedure, shortened: as §1

HCV replicon 1A = settings: Replicon Assay A
Procedure, shortened: as §1

[1] = Hepatitis C virus, read-out: 1A Q30D IC50 (nM), replicon 1AQ30D
[2] = Hepatitis C virus, read-out: 2B IC50 (nM), replicon 2B
[3] = Hepatitis C virus, read-out: 1A Y93H IC50 (nM), replicon 1AY93H
[4] = read-out: 1A Q30D IC50, replicon 1AQ30D
[5] = read-out: 1A Y93H IC50, replicon 1AY93H

Compound	IC50 (HCV replicon 1B; Hepatitis C virus, replicon 1B) [pM]	IC50 (HCV replicon 1AQ30D; [1]) [nM]	IC50 (HCV replicon 1A; Hepatitis C virus, replicon 1A) [pM]	IC50 (HCV replicon 1B; replicon 1B) [pM]	IC50 (HCV replicon 1AQ30D; [4]) [nM]	IC50 (HCV replicon 2B; read-out: 2B IC50, replicon 2B) [nM]	IC50 (HCV replicon 1AY93H; [5]) [nM]	IC50 (HCV replicon 1A; replicon 1A) [pM]	further results
COC(=O)NC(C(=O)N1CCC[C@H]1c1ncc(-c2cc(F)c3c(c2)OC(c2ccc(C4CC4)s2)n2c-3cc3cc(-c4cnc([C@@H]5CCCN5C(=O)[C@@H](NC(=O)OC)C(C)C)[nH]4)ccc32)[nH]1)C1C[C@@H](C)O[C@@H](C)C1 (stereo partly drawn) [Compound 188]	1.2	0.02	1.7						IC50 (HCV replicon 2B; [2]): 0.005 nM; IC50 (HCV replicon 1AY93H; [3]): 0.002 nM
COC(=O)NC(C(=O)N1CCC[C@H]1c1ncc(-c2ccc3c(c2)cc2n3C(c3ccc(CC(C)(C)OC)s3)Oc3cc(-c4cnc([C@@H]5CCCN5C(=O)[C@@H](NC(=O)OC)C(C)C)[nH]4)cc(F)c3-2)[nH]1)C1CCOC(C)(C)C1 (stereo partly drawn) [Compound 848]									IC50 (HCV replicon 1B; Hepatitis C virus, HCV replicon 1B): 4.5 pM; IC50 (HCV replicon 1AQ30D; Hepatitis C virus, read-out: 1A Q30D IC50, HCV replicon 1A Q30D): 0.085 nM; IC50 (HCV replicon 2B; Hepatitis C virus, read-out: 2B IC50, HCV replicon 2B): 0.026 nM; IC50 (HCV replicon 1AY93H; Hepatitis C virus, read-out: 1A Y93H IC50, HCV replicon 1A Y93H): 0.01 nM; IC50 (HCV replicon 1A; Hepatitis C virus, HCV replicon 1A): 2.9 pM
CCc1ccc(C2Oc3cc(-c4cnc([C@@H]5CCCN5C(=O)[C@@H](NC(=O)OC)C(C)C)[nH]4)cc(F)c3-c3cc4cc(-c5cnc([C@@H]6C[C@H]7C[C@H]7N6C(=O)C(NC(=O)OC)C6CCOC(C)(C)C6)[nH]5)ccc4n32)s1 (single isomer, unassigned) [Compound 201]				2.2	0.015	0.008	0.002	1.5	
COC(=O)NC(C(=O)N1[C@@H]2C[C@@H]2C[C@H]1c1ncc(-c2ccc3c(c2)c(F)c2n3C(c3ccc(C4CC4)s3)Oc3cc(-c4cnc([C@@H]5CCCN5C(=O)[C@@H](NC(=O)OC)C(C)C)[nH]4)ccc3-2)[nH]1)C1C[C@@H](C)O[C@@H](C)C1 (single isomer, unassigned) [Compound 645]									IC50 (HCV replicon 1B; HCV replicon 1B): 2.4 pM; IC50 (HCV replicon 1AQ30D; read-out: 1A Q30D IC50, HCV replicon 1A Q30D): 0.25 nM; IC50 (HCV replicon 2B; read-out: 2B IC50, HCV replicon 2B): 0.0686 nM; IC50 (HCV replicon 1AY93H; read-out: 1A Y93H IC50, HCV replicon 1A Y93H): 0.0222 nM; IC50 (HCV replicon 1A; HCV replicon 1A): 2.6 pM
COC(=O)NC(C(=O)N1[C@@H]2C[C@@H]2C[C@H]1c1ncc(-c2ccc3c(c2)cc2n3C(c3ccc(C4CC4)s3)Oc3cc(-c4cnc([C@@H]5CCCN5C(=O)[C@@H](NC(=O)OC)C(C)C)[nH]4)cc(F)c3-2)[nH]1)C1C[C@@H](C)O[C@@H](C)C1 (single isomer, unassigned) [Compound 271]	2.2				0.036	0.013	0.004	3.4	
COC(=O)N[C@H](C(=O)N1CCC[C@H]1c1ncc(-c2cc(F)c3c(c2)OC(c2ccc(C4CC4)s2)n2c-3cc3cc(-c4cnc([C@@H]5CCCN5C(=O)[C@@H](NC(=O)OC)C(C)C)[nH]4)ccc32)[nH]1)C(C)C (single isomer, unassigned) [Compound 6]				1.5				1.9	IC50 (HCV replicon 1AQ30D; replicon 1AQ30D, read-out: 1A Q30D IC50): 0.32 nM; IC50 (HCV replicon 2B; replicon 2B, read-out: 2B IC50): 0.028 nM; IC50 (HCV replicon 1AY93H; replicon 1AY93H, read-out: 1A Y93H IC50): 0.011 nM
CCc1ccc(C2Oc3cc(-c4cnc(C5CCCN5C(=O)C(NC(=O)OC)C5C[C@@H](C)O[C@@H](C)C5)[nH]4)ccc3-c3cc4c(F)c(-c5cnc([C@@H]6CCCN6C(=O)[C@@H](NC(=O)OC)C(C)C)[nH]5)ccc4n32)s1 (single isomer, unassigned) [Compound 359]	1.9	0.848				0.0519	0.0826	3.6	
COC(=O)NC(C(=O)N1CCC[C@H]1c1ncc(-c2cc(F)c3c(c2)OC(c2ccc(C4CC4)s2)n2c-3cc3cc(-c4cnc([C@@H]5CCCN5C(=O)[C@@H](NC(=O)OC)C(C)C)[nH]4)ccc32)[nH]1)C1CCOC(C)(C)C1 (single isomer, unassigned) [Compound 216]				3.3	1.03	0.31	0.18	1.7	
COC(=O)N[C@H](C(=O)N1CCC[C@H]1c1ncc(-c2ccc3c(c2)OC(c2ccc(C4CC4)s2)n2c-3cc3cc(-c4cnc([C@@H]5CCCN5C(=O)[C@@H](NC(=O)OC)C(C)C)[nH]4)ccc32)[nH]1)C(C)C (stereo partly drawn) [Compound 2]	2.4	0.1	2.9						IC50 (HCV replicon 2B; [2]): 0.033 nM; IC50 (HCV replicon 1AY93H; [3]): 0.032 nM
COC(=O)NC(C(=O)N1CCC[C@H]1c1ncc(-c2ccc3c(c2)cc2n3C(c3ccc(C4CC4)s3)Oc3cc(-c4cnc([C@@H]5CCCN5C(=O)[C@@H](NC(=O)OC)C(C)C)[nH]4)cc(F)c3-2)[nH]1)C1CCO[C@H](C)C1 (single isomer, unassigned) [Compound 139]				1.4	1.03	0.11	0.085	1.9	
COC(=O)N[C@H](C(=O)N1CCC[C@H]1c1ncc(-c2cc(F)c3c(c2)OC(c2ccc(C4CC4)s2)n2c-3cc3cc(-c4cnc([C@@H]5CCCN5C(=O)[C@@H](NC(=O)OC)C5CCOCC5)[nH]4)ccc32)[nH]1)C1CCOCC1 (single isomer, unassigned) [Compound 280]				2.6	0.005	0.003	0.003	2.1	
COC(=O)NC(C(=O)N1CCC[C@H]1c1ncc(-c2ccc3c(c2)cc2n3C(c3ccc(C(F)F)s3)Oc3cc(-c4cnc([C@@H]5CCCN5C(=O)[C@@H](NC(=O)OC)C(C)C)[nH]4)cc(F)c3-2)[nH]1)C1C[C@@H](C)O[C@@H](C)C1 (single isomer, unassigned) [Compound 266]	1.5	0.051	1.1			0.008	0.003		
CCc1ccc(C2Oc3cc(-c4cnc([C@@H]5CCCN5C(=O)[C@@H](NC(=O)OC)C(C)C)[nH]4)cc(F)c3-c3cc4cc(-c5cnc([C@@H]6CCCN6C(=O)[C@@H](NC(=O)OC)C(C)C)[nH]5)ccc4n32)s1 (stereo partly drawn) [Compound 4]	2	0.347	2.2						IC50 (HCV replicon 2B; [2]): 0.055 nM; IC50 (HCV replicon 1AY93H; [3]): 0.01 nM
CCc1ccc(C2Oc3cc(-c4cnc([C@@H]5CCCN5C(=O)[C@@H](NC(=O)OC)C(C)C)[nH]4)cc(F)c3-c3cc4cc(-c5cnc([C@@H]6C[C@@H](F)CN6C(=O)C(NC(=O)OC)C6CCOC(C)(C)C6)[nH]5)ccc4n32)s1 (single isomer, unassigned) [Compound 259]				3.3	0.31	0.32	0.002	3.1	
COC(=O)NC(C(=O)N1CCC[C@H]1c1ncc(-c2ccc3c(c2)cc2n3C(c3cc(C)c(C)s3)Oc3cc(-c4cnc([C@@H]5CCCN5C(=O)[C@@H](NC(=O)OC)C5CCOCC5)[nH]4)cc(F)c3-2)[nH]1)C(C)(C)F (stereo partly drawn) [Compound 128]	3.6	0.044	3						IC50 (HCV replicon 2B; [2]): 0.045 nM; IC50 (HCV replicon 1AY93H; [3]): 0.03 nM
CCc1ccc(C2Oc3cc(-c4cnc([C@@H]5CCCN5C(=O)C(NC(=O)OC)C5CCOC(C)(C)C5)[nH]4)cc(F)c3-c3cc4cc(-c5cnc([C@@H]6CCCN6C(=O)[C@@H](NC(=O)OC)C(C)C)[nH]5)ccc4n32)s1 (single isomer, unassigned) [Compound 162]				1.9	0.027	0.006	0.004	2.2	
COC(=O)NC(C(=O)N1CCC[C@H]1c1ncc(-c2cc(F)c3c(c2)OC(c2ccc(C4CC4)s2)n2c-3cc3cc(-c4cnc([C@@H]5CCCN5C(=O)C(NC(=O)OC)C(C)(C)F)[nH]4)ccc32)[nH]1)C(C)(C)F (single isomer, unassigned) [Compound 111]	1.7	0.13				0.038	0.074	3.2	
COC(=O)N[C@H](C(=O)N1CCC[C@H]1c1ncc(-c2cc(F)c3c(c2)OC(c2ccc(-c4ccc(I)cc4)s2)n2c-3cc3cc(-c4cnc([C@@H]5CCCN5C(=O)[C@@H](NC(=O)OC)C(C)C)[nH]4)ccc32)[nH]1)C(C)C (mixture of isomers) [Compound 313]	2.9	0.19	3.2						IC50 (HCV replicon 2B; [2]): 0.1 nM; IC50 (HCV replicon 1AY93H; [3]): 0.026 nM
